Reference: ChEMBL document CHEMBL1240295, “Specificity and mechanism of action of some commonly used protein kinase inhibitors” (Biochem J, 2000)

Legend:
Oryctolagus cuniculus [1] = species on record: Oryctolagus cuniculus; assay: Inhibition of PHK from rabbit skeletal muscle at 50 uM; values are per cent of control; conditions: Muscle tissue
[2] = biological target: Rho-associated protein kinase 2 (Rattus norvegicus) (UniProt Q62868); assay: Inhibition of rat ROCK2 expressed in Sf9 cells at 50 uM; conditions: values are per cent of control
[3] = biological target: MAP kinase-activated protein kinase 2 (Homo sapiens, UniProt P49137); assay: Inhibition of His-tagged human MAPKAPK2 expressed in Escherichia coli at 50 uM; values are per cent of control
[4] = biological target: T1, Casein kinase II (Homo sapiens) (UniProt P67870+P68400+P19784); assay: Inhibition of His-tagged human CK2 expressed in Sf9 cells at 50 uM; values are per cent of control
[5] = biological target: RAC-alpha serine/threonine-protein kinase (Homo sapiens) (UniProt P31749); assay: Inhibition of human PKBalpha expressed in SF9 cells at 50 uM; values are per cent of control
[6] = biological target: Mitogen-activated protein kinase 11 (Homo sapiens) (UniProt Q15759); assay: Inhibition of His-tagged human SAPK2b/p38b2 expressed in Escherichia coli at 50 uM; values are per cent of control
[7] = biological target: T2, Serine/threonine-protein kinase Chk1 (Homo sapiens) (UniProt O14757); assay: Inhibition of His-tagged human CHK1 expressed in Escherichia coli at 50 uM; values are per cent of control
T2 sequence (whole entry): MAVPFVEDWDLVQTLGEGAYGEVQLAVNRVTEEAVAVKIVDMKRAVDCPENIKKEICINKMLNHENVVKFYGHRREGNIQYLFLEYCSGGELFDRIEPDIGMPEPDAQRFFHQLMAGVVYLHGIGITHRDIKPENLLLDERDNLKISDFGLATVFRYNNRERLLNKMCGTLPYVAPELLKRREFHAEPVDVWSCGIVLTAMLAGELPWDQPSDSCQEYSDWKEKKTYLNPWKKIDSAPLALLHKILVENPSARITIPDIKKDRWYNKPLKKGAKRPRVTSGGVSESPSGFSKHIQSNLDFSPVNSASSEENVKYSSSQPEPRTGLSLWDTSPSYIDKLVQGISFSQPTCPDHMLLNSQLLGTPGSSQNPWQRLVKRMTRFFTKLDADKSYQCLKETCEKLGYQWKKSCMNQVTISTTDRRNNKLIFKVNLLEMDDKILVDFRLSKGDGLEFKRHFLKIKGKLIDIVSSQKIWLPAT

Bos taurus [8] = species on record: Bos taurus; assay: Inhibition of bovine heart PKA at 50 uM; values are per cent of control
[9] = biological target: Mitogen-activated protein kinase 1 (Homo sapiens) (UniProt P28482); assay: Inhibition of His-tagged human MAPK2/ERK2 expressed in Escherichia coli at 50 uM; values are per cent of control
[10] = biological target: T3, Mitogen-activated protein kinase 13 (Homo sapiens) (UniProt O15264); assay: Inhibition of His-tagged human SAPK4/p38delta expressed in Escherichia coli at 50 uM; values are per cent of control
T3 sequence (whole entry): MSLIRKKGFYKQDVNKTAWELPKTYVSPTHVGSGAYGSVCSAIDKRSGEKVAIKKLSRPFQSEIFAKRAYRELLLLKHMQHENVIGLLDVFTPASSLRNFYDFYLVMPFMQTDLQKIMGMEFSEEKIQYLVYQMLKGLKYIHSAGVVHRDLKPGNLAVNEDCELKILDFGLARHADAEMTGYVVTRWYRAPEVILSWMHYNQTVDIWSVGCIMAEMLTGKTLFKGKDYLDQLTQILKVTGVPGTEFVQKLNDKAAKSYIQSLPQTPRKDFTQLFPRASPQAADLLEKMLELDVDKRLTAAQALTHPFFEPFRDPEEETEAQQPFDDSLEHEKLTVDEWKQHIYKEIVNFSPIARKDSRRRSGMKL

[11] = biological target: T4, Mitogen-activated protein kinase 12 (Homo sapiens) (UniProt P53778); assay: Inhibition of His-tagged human SAPK3/p38gamma expressed in Escherichia coli at 50 uM; values are per cent of control
T4 sequence (whole entry): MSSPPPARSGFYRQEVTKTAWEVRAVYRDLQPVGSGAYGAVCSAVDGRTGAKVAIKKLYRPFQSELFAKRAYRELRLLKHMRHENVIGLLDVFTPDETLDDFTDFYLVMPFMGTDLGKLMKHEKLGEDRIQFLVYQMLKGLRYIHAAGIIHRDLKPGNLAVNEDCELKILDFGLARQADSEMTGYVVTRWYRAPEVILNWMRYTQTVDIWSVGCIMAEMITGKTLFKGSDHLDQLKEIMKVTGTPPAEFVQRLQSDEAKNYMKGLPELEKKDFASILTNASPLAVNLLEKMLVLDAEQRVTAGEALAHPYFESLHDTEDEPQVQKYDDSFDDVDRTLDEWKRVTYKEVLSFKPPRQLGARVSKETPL

[12] = biological target: Protein kinase C alpha type (Homo sapiens, UniProt P17252); assay: Inhibition of His-tagged human PKCalpha expressed in Escherichia coli at 50 uM; values are per cent of control
[13] = biological target: Mitogen-activated protein kinase 8 (Homo sapiens) (UniProt P45983); assay: Inhibition of His-tagged human JNK1a1/SAPK1c expressed in Escherichia coli at 50 uM; values are per cent of control
Rattus norvegicus [14] = species on record: Rattus norvegicus; assay: Inhibition of rat liver AMPK at 50 uM; values are per cent of control
[15] = biological target: T5, Serine/threonine-protein kinase Sgk1 (Homo sapiens) (UniProt O00141); assay: Inhibition of His-tagged human SGK expressed in Sf9 cells at 50 uM; values are per cent of control
T5 sequence (whole entry): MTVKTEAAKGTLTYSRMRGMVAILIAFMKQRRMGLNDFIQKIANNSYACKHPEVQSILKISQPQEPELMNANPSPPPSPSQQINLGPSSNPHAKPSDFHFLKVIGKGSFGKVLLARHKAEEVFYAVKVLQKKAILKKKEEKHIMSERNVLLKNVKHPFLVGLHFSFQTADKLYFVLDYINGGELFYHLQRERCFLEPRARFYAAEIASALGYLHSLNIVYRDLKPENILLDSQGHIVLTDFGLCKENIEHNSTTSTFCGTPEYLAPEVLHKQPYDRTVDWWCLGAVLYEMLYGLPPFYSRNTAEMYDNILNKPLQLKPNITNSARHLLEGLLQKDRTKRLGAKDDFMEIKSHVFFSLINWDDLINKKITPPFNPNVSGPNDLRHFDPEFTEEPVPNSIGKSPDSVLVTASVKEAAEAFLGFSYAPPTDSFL

[16] = biological target: Glycogen synthase kinase-3 beta (Homo sapiens, UniProt P49841); assay: Inhibition of His-tagged human GSK3b expressed in Sf21 cells at 50 uM; values are per cent of control
[17] = biological target: T6, Ribosomal protein S6 kinase alpha-5 (Homo sapiens, UniProt O75582); assay: Inhibition of His-tagged human MSK1 expressed in Sf9 cells at 50 uM; values are per cent of control
[18] = biological target: Mitogen-activated protein kinase 14 (Homo sapiens) (UniProt Q16539); assay: Inhibition of His-tagged human SAPK2a/p38 expressed in Escherichia coli at 50 uM; values are per cent of control
[19] = biological target: [Pyruvate dehydrogenase (acetyl-transferring)] kinase isozyme 1, mitochondrial (Homo sapiens) (UniProt Q15118); assay: Inhibition of His-tagged human PDK1 expressed in Sf21 cells at 50 uM; conditions: values are per cent of control
[20] = biological target: T7, Ribosomal protein S6 kinase beta-1 (Homo sapiens, UniProt P23443); assay: Inhibition of His-tagged human S6K1 expressed in Escherichia coli at 50 uM; values are per cent of control
Oryctolagus cuniculus [21] = species on record: Oryctolagus cuniculus; assay: Inhibition of MAPKAPK1b from rabbit skeletal muscle at 50 uM; values are per cent of control; conditions: Muscle tissue
Oryctolagus cuniculus [22] = species on record: Oryctolagus cuniculus; assay: Inhibition of rabbit MKK1 expressed in Escherichia coli at 50 uM; values are per cent of control
[23] = biological target: T3, Mitogen-activated protein kinase 13 (Homo sapiens); assay: Inhibition of His-tagged human SAPK4/p38delta expressed in Escherichia coli at 20 uM; conditions: values are per cent of control
[24] = biological target: Serine/threonine-protein kinase N2 (Homo sapiens) (UniProt Q16513); conditions: HEK293, 20 uM
Description: Inhibition of His-tagged human PRK2 expressed in HEK293 cells at 20 uM

[25] = biological target: T2, Serine/threonine-protein kinase Chk1 (Homo sapiens); assay: Inhibition of His-tagged human CHK1 expressed in Escherichia coli at 20 uM; values are per cent of control
[26] = biological target: Mitogen-activated protein kinase 8 (Homo sapiens) (UniProt P45983); assay: Inhibition of His-tagged human JNK1a1/SAPK1c expressed in Escherichia coli at 20 uM; values are per cent of control
Oryctolagus cuniculus [27] = species on record: Oryctolagus cuniculus; assay: Inhibition of PHK from rabbit skeletal muscle at 20 uM; values are per cent of control; conditions: Muscle tissue
Bos taurus [28] = species on record: Bos taurus; assay: Inhibition of bovine heart PKA at 20 uM; values are per cent of control
[29] = biological target: T7, Ribosomal protein S6 kinase beta-1; assay: Inhibition of His-tagged human S6K1 expressed in Escherichia coli at 20 uM; values are per cent of control
[30] = biological target: T1, Casein kinase II (Homo sapiens); assay: Inhibition of His-tagged human CK2 expressed in Sf9 cells at 20 uM; conditions: values are per cent of control
[31] = biological target: Mitogen-activated protein kinase 11 (Homo sapiens) (UniProt Q15759); assay: Inhibition of His-tagged human SAPK2b/p38b2 expressed in Escherichia coli at 20 uM; values are per cent of control
[32] = biological target: T6, Ribosomal protein S6 kinase alpha-5; assay: Inhibition of His-tagged human MSK1 expressed in Sf9 cells at 20 uM; values are per cent of control
Rattus norvegicus [33] = species on record: Rattus norvegicus; assay: Inhibition of rat liver AMPK at 20 uM; values are per cent of control

T7 sequence (P23443 whole entry, looked up): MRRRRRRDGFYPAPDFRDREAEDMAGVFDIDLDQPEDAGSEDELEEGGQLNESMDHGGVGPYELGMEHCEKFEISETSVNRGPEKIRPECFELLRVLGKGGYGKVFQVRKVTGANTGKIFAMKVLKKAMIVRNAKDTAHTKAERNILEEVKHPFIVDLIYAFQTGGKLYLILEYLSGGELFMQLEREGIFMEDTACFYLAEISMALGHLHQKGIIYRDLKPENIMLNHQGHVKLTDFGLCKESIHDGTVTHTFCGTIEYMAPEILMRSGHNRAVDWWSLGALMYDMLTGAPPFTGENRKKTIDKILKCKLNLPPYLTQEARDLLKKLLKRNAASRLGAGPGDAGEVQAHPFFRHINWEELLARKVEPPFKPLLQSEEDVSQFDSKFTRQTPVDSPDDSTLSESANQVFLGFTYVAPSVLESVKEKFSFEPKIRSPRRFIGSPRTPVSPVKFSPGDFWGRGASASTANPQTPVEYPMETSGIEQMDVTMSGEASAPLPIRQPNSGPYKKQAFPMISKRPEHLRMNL
Mitogen-activated protein kinase 8 (Homo sapiens), sequence (P45983 whole entry): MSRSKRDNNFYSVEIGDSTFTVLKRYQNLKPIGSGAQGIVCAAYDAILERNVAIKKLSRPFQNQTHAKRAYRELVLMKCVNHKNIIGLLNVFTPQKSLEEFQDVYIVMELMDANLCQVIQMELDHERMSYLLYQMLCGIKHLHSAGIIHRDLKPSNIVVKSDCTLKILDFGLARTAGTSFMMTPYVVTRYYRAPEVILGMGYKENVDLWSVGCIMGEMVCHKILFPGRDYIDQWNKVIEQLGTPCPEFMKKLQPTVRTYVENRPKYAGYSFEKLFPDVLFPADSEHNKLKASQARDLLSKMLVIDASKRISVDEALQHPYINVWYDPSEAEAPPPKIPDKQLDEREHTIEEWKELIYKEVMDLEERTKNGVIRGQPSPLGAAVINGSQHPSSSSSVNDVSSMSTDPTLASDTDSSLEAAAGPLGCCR
Mitogen-activated protein kinase 11 (Homo sapiens), sequence (Q15759 whole entry): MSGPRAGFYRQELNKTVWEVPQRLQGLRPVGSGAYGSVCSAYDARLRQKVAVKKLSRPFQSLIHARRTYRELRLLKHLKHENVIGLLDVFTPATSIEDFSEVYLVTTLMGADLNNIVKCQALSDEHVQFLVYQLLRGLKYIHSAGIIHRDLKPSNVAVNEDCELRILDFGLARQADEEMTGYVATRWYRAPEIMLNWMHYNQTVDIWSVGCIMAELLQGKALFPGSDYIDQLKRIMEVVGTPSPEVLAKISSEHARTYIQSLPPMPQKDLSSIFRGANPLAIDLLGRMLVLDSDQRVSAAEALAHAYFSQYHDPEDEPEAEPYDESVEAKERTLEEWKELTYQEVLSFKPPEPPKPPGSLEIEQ
T6 sequence (O75582 whole entry, looked up): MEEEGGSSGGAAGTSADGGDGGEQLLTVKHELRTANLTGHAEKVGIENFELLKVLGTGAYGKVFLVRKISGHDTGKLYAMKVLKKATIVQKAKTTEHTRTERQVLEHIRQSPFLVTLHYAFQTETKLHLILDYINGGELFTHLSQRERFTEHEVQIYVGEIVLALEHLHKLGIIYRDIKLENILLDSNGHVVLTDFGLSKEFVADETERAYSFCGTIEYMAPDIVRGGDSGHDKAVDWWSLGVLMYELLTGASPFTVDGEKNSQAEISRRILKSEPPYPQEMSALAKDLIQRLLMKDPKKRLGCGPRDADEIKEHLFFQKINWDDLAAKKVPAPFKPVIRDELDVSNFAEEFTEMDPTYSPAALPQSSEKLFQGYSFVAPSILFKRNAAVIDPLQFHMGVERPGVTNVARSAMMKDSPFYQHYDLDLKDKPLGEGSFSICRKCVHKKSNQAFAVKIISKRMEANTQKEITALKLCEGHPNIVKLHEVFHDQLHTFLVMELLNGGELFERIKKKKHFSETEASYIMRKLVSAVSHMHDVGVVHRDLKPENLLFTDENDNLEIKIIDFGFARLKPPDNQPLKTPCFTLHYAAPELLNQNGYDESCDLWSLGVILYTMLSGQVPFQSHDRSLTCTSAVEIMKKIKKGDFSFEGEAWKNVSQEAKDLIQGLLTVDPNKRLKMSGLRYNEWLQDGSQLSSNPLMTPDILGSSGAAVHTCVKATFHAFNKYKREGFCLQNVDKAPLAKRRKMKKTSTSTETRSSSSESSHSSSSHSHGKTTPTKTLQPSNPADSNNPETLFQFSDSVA
Glycogen synthase kinase-3 beta, sequence (P49841 whole entry, looked up): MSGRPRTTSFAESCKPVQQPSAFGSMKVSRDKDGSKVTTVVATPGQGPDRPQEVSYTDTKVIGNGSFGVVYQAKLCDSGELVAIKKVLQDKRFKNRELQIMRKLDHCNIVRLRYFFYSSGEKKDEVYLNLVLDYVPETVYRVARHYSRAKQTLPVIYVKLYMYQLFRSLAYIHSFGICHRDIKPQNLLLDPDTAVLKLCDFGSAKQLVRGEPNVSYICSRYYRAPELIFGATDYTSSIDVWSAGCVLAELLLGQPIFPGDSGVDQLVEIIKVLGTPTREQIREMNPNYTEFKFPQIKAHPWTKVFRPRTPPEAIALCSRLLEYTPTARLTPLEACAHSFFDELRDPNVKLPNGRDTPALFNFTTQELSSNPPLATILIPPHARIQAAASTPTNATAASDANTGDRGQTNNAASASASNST
Serine/threonine-protein kinase N2 (Homo sapiens), sequence (Q16513 whole entry, looked up): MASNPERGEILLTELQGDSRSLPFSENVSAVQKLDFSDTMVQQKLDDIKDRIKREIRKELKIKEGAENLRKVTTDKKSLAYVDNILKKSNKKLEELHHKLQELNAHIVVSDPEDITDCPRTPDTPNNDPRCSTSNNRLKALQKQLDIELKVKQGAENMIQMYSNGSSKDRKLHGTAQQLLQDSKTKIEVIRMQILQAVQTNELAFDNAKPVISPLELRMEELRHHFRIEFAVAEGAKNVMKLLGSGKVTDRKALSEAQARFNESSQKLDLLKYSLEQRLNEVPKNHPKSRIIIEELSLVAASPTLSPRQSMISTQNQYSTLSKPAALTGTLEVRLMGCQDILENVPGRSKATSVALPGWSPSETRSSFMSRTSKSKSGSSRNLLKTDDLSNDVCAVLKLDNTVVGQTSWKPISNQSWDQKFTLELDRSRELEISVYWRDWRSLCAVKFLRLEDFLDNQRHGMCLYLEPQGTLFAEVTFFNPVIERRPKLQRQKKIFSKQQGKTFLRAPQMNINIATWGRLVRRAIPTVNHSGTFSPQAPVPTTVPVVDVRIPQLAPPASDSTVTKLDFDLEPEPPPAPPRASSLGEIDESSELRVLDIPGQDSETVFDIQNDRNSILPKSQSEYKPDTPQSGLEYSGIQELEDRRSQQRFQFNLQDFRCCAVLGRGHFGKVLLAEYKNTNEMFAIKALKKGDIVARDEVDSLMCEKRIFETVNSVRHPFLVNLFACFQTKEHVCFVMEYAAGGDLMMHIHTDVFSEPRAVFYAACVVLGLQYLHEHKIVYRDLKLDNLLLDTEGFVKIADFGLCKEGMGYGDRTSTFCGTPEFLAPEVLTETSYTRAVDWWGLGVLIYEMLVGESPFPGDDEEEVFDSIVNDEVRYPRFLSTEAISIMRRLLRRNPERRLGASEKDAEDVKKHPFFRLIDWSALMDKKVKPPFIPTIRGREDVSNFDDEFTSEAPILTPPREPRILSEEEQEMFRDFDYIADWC
MAP kinase-activated protein kinase 2, sequence (P49137 whole entry, looked up): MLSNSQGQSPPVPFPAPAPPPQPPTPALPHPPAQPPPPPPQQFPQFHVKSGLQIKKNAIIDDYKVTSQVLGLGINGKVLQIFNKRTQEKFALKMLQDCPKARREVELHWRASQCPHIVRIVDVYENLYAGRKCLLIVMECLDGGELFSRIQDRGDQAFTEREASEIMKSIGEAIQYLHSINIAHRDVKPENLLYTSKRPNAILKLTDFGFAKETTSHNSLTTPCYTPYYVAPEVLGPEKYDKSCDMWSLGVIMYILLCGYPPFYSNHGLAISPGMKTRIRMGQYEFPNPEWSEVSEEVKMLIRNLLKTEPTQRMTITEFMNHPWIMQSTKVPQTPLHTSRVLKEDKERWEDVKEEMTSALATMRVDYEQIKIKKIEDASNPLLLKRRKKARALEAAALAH
RAC-alpha serine/threonine-protein kinase (Homo sapiens), sequence (P31749 whole entry): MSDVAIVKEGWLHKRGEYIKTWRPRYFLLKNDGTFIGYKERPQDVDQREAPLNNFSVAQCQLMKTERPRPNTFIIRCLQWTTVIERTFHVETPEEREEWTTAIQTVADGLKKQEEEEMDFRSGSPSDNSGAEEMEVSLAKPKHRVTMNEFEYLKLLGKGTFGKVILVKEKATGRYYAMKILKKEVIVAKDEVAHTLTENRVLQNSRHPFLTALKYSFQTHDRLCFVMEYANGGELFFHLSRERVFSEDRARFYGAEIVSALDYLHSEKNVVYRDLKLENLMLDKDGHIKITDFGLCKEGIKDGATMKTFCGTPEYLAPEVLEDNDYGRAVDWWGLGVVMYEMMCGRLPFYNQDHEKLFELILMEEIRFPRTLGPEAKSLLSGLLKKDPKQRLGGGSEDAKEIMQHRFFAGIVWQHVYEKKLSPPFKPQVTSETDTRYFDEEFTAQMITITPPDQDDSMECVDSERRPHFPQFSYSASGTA
Mitogen-activated protein kinase 1 (Homo sapiens), sequence (P28482 whole entry): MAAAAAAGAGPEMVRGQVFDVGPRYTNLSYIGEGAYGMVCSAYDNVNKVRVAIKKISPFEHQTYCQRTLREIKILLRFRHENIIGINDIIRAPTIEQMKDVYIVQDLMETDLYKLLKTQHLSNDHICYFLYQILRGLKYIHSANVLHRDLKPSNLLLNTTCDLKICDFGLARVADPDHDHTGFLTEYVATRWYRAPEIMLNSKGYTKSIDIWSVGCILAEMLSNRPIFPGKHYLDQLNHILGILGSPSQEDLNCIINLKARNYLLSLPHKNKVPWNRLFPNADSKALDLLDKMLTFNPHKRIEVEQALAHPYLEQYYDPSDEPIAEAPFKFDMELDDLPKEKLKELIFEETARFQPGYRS

COc1cccc(-c2cc(=O)c3ccccc3o2)c1N
level, % of control (Oryctolagus cuniculus [1]): 87% | residual activity [2]: 80% | residual activity [3]: 95% | residual activity [4]: 87% | residual activity [5]: 82% | residual activity [6]: 95% | residual activity [7]: 99% | residual activity (Bos taurus [8]): 106% | residual activity [9]: 85% | residual activity [10]: 94% | residual activity [11]: 96% | residual activity [12]: 93% | residual activity [13]: 111% | residual activity (Rattus norvegicus [14]): 97% | residual activity [15]: 90% | residual activity [16]: 101% | residual activity [17]: 86% | residual activity [18]: 85% | residual activity [19]: 86% | residual activity [20]: 100% | level, % of control (Oryctolagus cuniculus [21]): 93% | residual activity (Oryctolagus cuniculus [22]): 89%

O=S(=O)(c1cccc2cnccc12)N1CCCNCC1
residual activity [23]: 103% | inhibition [24]: 15% | residual activity [25]: 82% | residual activity [26]: 96% | level, % of control (Oryctolagus cuniculus [27]): 58% | residual activity (Bos taurus [28]): 35% | residual activity [29]: 32% | residual activity [30]: 102% | residual activity [31]: 97% | residual activity [32]: 19% | residual activity (Rattus norvegicus [33]): 77%
